Measurements from ChEMBL document CHEMBL5724914, “Linking interpersonal differences in gut microbiota composition and drug biotransformation activity” (2024).

Legend:
[1] = The drug is tested on WLS-027 corresponding to human gut metagenome with ENA study accession number: PRJEB37062 and ENA sample accession number: ERS12561744 for biotransformation under anaerobic condition. The drug concentrations were measured over 9 timepoints collected between 0 and 24 hours of incubation by liquid-chromatography-coupled mass spectrometry (LC–MS); conditions: 2 µM
[2] = The drug is tested on Z-004 corresponding to metagenome with ENA study accession number: PRJEB37062 and ENA sample accession number: ERS12561804 for biotransformation under anaerobic condition. The drug concentrations were measured over 9 timepoints collected between 0 and 24 hours of incubation by liquid-chromatography-coupled mass spectrometry (LC–MS); conditions: 2 µM
[3] = The drug is tested on WLS-090 corresponding to human gut metagenome with ENA study accession number: PRJEB37062 and ENA sample accession number: ERS12561753 for biotransformation under anaerobic condition. The drug concentrations were measured over 9 timepoints collected between 0 and 24 hours of incubation by liquid-chromatography-coupled mass spectrometry (LC–MS); conditions: 2 µM
[4] = human gut metagenome, 24 h, 2 µM
[5] = human gut metagenome, 24 h, 2 µM; remark: listed apart in the source
[6] = The drug is tested on Z-030 corresponding to mouse gut metagenome with ENA study accession number: PRJEB37062 and ENA sample accession number: ERS12561829 for biotransformation under anaerobic condition. The drug concentrations were measured over 9 timepoints collected between 0 and 24 hours of incubation by liquid-chromatography-coupled mass spectrometry (LC–MS); conditions: 2 µM
[7] = human gut metagenome, 24 h, 2 µM; remark: listed apart in the source
[8] = The drug is tested on Z-012 corresponding to metagenome with ENA study accession number: PRJEB37062 and ENA sample accession number: ERS12561812 for biotransformation under anaerobic condition. The drug concentrations were measured over 9 timepoints collected between 0 and 24 hours of incubation by liquid-chromatography-coupled mass spectrometry (LC–MS); conditions: 2 µM
[9] = human gut metagenome, 24 h, 2 µM; remark: listed apart in the source
Note: call rule not given here.

| SMILES | Bacterial Biotransformation [1] | Bacterial Biotransformation [2] | Bacterial Biotransformation [3] | Bacterial Biotransformation [4] | Bacterial Biotransformation [5] | Bacterial Biotransformation [6] | Bacterial Biotransformation [7] | Bacterial Biotransformation [8] | Bacterial Biotransformation [9] |
| --- | --- | --- | --- | --- | --- | --- | --- | --- | --- |
| CCN(CC)CCNC(C(=O)OCCC(C)C)c1ccccc1.Cl.Cl (stereo not given) | Compound metabolized | Compound NOT metabolized | Compound metabolized | Compound metabolized | Compound metabolized | Compound NOT metabolized | Compound metabolized | Compound NOT metabolized | Compound metabolized |
| C=CCc1ccccc1OCC(O)CNC(C)C (stereo not given) [ALPRENOLOL] | Compound NOT metabolized | Compound NOT metabolized | Compound metabolized | Compound NOT metabolized | Compound NOT metabolized | Compound NOT metabolized | Compound NOT metabolized | Compound NOT metabolized | Compound NOT metabolized |
| CC(C)c1c(C(=O)Nc2ccccc2)c(-c2ccccc2)c(-c2ccc(F)cc2)n1CC[C@@H](O)C[C@@H](O)CC(=O)O [ATORVASTATIN] | Compound metabolized | Compound NOT metabolized | Compound metabolized | Compound NOT metabolized | Compound metabolized | Compound NOT metabolized | Compound metabolized | Compound NOT metabolized | Compound metabolized |
| CCOC(=O)[C@H](CCc1ccccc1)N[C@H]1CCc2ccccc2N(CC(=O)O)C1=O [BENAZEPRIL] | Compound metabolized | Compound metabolized | Compound metabolized | Compound metabolized | Compound metabolized | Compound metabolized | Compound metabolized | Compound metabolized | Compound metabolized |
| NS(=O)(=O)c1cc2c(cc1Cl)N=C(CSCc1ccccc1)NS2(=O)=O [BENZTHIAZIDE] | Compound NOT metabolized | Compound NOT metabolized | Compound NOT metabolized | Compound NOT metabolized | Compound NOT metabolized | Compound NOT metabolized | Compound NOT metabolized | Compound NOT metabolized | Compound NOT metabolized |
| CC(C)NCC(O)COc1ccc(COCCOC(C)C)cc1.CC(C)NCC(O)COc1ccc(COCCOC(C)C)cc1.O=C(O)/C=C/C(=O)O (stereo not given) [BISOPROLOL FUMARATE] | Compound NOT metabolized | Compound NOT metabolized | Compound metabolized | Compound NOT metabolized | Compound metabolized | Compound NOT metabolized | Compound metabolized | Compound NOT metabolized | Compound metabolized |
| CN1CCN(C2=Nc3cc(Cl)ccc3Nc3ccccc32)CC1 [CLOZAPINE] | Compound metabolized | Compound NOT metabolized | Compound metabolized | Compound metabolized | Compound metabolized | Compound NOT metabolized | Compound NOT metabolized | Compound NOT metabolized | Compound NOT metabolized |
| COc1cc2c(c(OC)c1OC)-c1ccc(OC)c(=O)cc1[C@@H](NC(C)=O)CC2 [COLCHICINE] | Compound NOT metabolized | Compound NOT metabolized | Compound NOT metabolized | Compound NOT metabolized | Compound metabolized | Compound NOT metabolized | Compound NOT metabolized | Compound NOT metabolized | Compound metabolized |
| COc1ccc2[nH]c([S+]([O-])Cc3ncc(C)c(OC)c3C)nc2n1 (stereo not given) [TENATOPRAZOLE] | Compound metabolized | Compound metabolized | – | Compound metabolized | Compound metabolized | Compound metabolized | Compound NOT metabolized | Compound metabolized | Compound metabolized |

Further lines, results first:

| Bacterial Biotransformation [1] | Bacterial Biotransformation [2] | Bacterial Biotransformation [3] | Bacterial Biotransformation [4] | Bacterial Biotransformation [5] | Bacterial Biotransformation [6] | Bacterial Biotransformation [7] | Bacterial Biotransformation [8] | Bacterial Biotransformation [9] | SMILES |
| --- | --- | --- | --- | --- | --- | --- | --- | --- | --- |
| Compound metabolized | Compound metabolized | Compound metabolized | Compound metabolized | Compound metabolized | Compound NOT metabolized | Compound metabolized | Compound metabolized | Compound metabolized | CCOC(=O)[C@H](CCc1ccccc1)N[C@@H](C)C(=O)N1[C@H](C(=O)O)C[C@@H]2CCC[C@@H]21 |
| Compound NOT metabolized | Compound NOT metabolized | Compound metabolized | Compound metabolized | Compound metabolized | Compound NOT metabolized | Compound NOT metabolized | Compound NOT metabolized | Compound metabolized | CCCC(=O)Nc1ccc(OCC(O)CNC(C)C)c(C(C)=O)c1 (stereo not given) [ACEBUTOLOL] |
| Compound metabolized | Compound metabolized | Compound metabolized | Compound metabolized | Compound metabolized | Compound metabolized | Compound metabolized | Compound metabolized | Compound metabolized | CCCCCOC(=O)Nc1nc(=O)n([C@@H]2O[C@H](C)[C@@H](O)[C@H]2O)cc1F [CAPECITABINE] |
| Compound metabolized | Compound NOT metabolized | Compound NOT metabolized | Compound NOT metabolized | Compound metabolized | Compound NOT metabolized | Compound NOT metabolized | Compound NOT metabolized | Compound metabolized | Cc1ccc(-c2cc(C(F)(F)F)nn2-c2ccc(S(N)(=O)=O)cc2)cc1 [CELECOXIB] |
| Compound metabolized | Compound NOT metabolized | Compound metabolized | Compound metabolized | Compound metabolized | Compound NOT metabolized | Compound metabolized | Compound NOT metabolized | Compound NOT metabolized | Clc1ccc(Cn2c(CN3CCCC3)nc3ccccc32)cc1 [CLEMIZOLE] |
